Key:
[1] = tested on: male Slc:ddY mice (electroshock-induced tonic extensor seizure); assay: Maximal electroshock seizure (MES) model; assay type: in vivo, mouse; conditions: corneal stimulation 60 Hz, 50 mA, 0.2 seconds 1 hour after oral dosing
Description: Evaluation of Maximal Electroshock Seizure (MES) Model
This test evaluates the antiseizure effect of a medicament in the same manner as Test Example 3. The animal model used in this test is a phenotype of generalized tonic-clonic seizure and secondary generalized partial seizure. The test compound was orally administered to male Slc:ddY mice (group of five, body weight: 20 to 30 g), and electrical stimulation (60 Hz, 50 mA, 0.2 seconds) was applied through the cornea 1 hour later. Suppression of induced expression of tonic extensor seizure of the rear limb was observed. The dose at which […] (ED50) was calculated. 0.5% methylcellulose solution was administered for the control.

[2] = tested on: male Slc:ddY mice (pentetrazol-induced clonic seizure); assay: Model subcutaneously injected with pentetrazol (minimum seizure model, scPTZ); assay type: in vivo, mouse; conditions: 85 mg/kg pentetrazol s.c. 1 hour after oral dosing, observed 30 minutes
Description: Evaluation of Model Subcutaneously Injected with Pentetrazol (Minimum Seizure Model, scPTZ)
This test evaluates the antiseizure effect of a medicament. The animal model used in this test is a phenotype of generalized absence seizure or myoclonic seizure. The test compound was orally administered to male Slc:ddY mice (group of five, body weight: 20 to 30 g), and 85 mg of pentetrazol/kg was subcutaneously administered 1 hour later. The presence/absence of expression of clonic seizure during 30 minutes was then observed. The dose at which […] (ED50) was calculated. 0.5% methylcellulose solution was administered for the control.

[3] = tested on: neurons induced to differentiate from SCN1A gene deficient human iPS cells; assay: Test for measuring hyperexcitation suppression activity (spontaneous calcium oscillation frequency); assay type: cell-based; conditions: Neuron; for inhibition at 1 µM / inhibition at 0.1 µM / inhibition at 10 µM: Homo sapiens, read-out: inhibition rate; for IC50: SCN1A gene deficient human iPS cell-derived neurons, FLIPR Calcium 6, FDSS7000EX, read-out: IC50 (50% inhibitory concentration, frequency of spontaneous calcium oscillation)
How it was run: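 SCN1A-deficient iPS-derived neurons used from day 60 of differentiation, loaded 30 min with Calcium 6 probe. Compounds at final 0.1–100 μM; spontaneous calcium oscillation frequency recorded on FDSS7000EX, with the last 2 of 8 min post-addition expressed relative to the 2 min baseline.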

[4] = tested on: SCN1A loss-of-function genetic mutation mice (epileptic spike); assay: Evaluation of epileptic spike using SCN1A-mutated animal; assay type: in vivo, mouse; conditions: F1 SCN1A-mutated mice; spike frequency over 3 hours before and after administration
Description: Evaluation of Epileptic Spike Using SCN1A-Mutated Animal
This test evaluates the inhibitory effect of a medicament on epileptic spike expressed with an SCN1A loss-of-function genetic mutation.
Febrile seizure was induced in the SCN1A-mutated mice (6 to 10 week old) described above from increasing the body temperature by placing and continuously incubating the mice in a plastic chamber whose internal temperature was increased by incubation using a warm bath of about 43° C. After two weeks from inducing febrile seizure, a head mount (cat #8201-SS, Pinnacle Technology) was mounted on the head of the mice. Two weeks after mounting the head mount, the F1 SCN1A loss-of-function genetic mutation mice (25 to 32 g) were connected to a seizure EEG recording system (Pinnacle Technology), and the test compound was administered. The epileptic spike frequency over 3 hours before and after administration of the compound was measured, and the dose at which epileptic spike frequency is suppressed to 50% after the administration (ED50) was calculated.

male Slc:ddy mice = assay: Rotarod evaluation (motor coordination); assay type: in vivo, mouse; conditions: rotarod 15 rpm, 50 minutes after oral dosing, 180 seconds
Description: The test evaluates the effect of suppressing the ability of motor coordination of a medicament. Male Slc:ddy mice (body weight: 20 to 30 g) were trained to walk for 5 minutes with a rotarod apparatus (apparatus for rotating a cylindrical bar with a 4 cm diameter, 12 rpm) on the day of the test. A test compound was orally administered to a group of 5 mice. […] Animals that fell off within 180 seconds due to incoordination were counted. […] 0.5% methylcellulose solution was administered for the control.

`O=c1c2cc(F)ccc2nc(Nc2cncc(F)c2)n1-c1ccccc1` [Example 40, 6-fluoro-2-((5-fluoropyridin-3-yl)amino)-3-phenylquinazolin-4(3H)-one] was tested, and the “ED50 (tonic extensor seizure)” value [1] was 0.56 mg/kg, p.o, the “ED50 (clonic seizure)” value [2] was 0.27 mg/kg, p.o and the inhibition at 1 µM [3] was 100%. The “ED50 (dose at which epileptic spike frequency is suppressed to 50%)” value [4] was 0.12 mg/kg, p.o and the “TD50 (dosage at which 50% of animals fall off)” value (male Slc:ddy mice) was 1.8 mg/kg, p.o.

With `O=c1c2cc(F)cc(F)c2nc(Nc2cccnc2)n1-c1ccccc1` [Example 32, 6,8-difluoro-3-phenyl-2-(pyridin-3-ylamino)quinazolin-4(3H)-one] the “ED50 (clonic seizure)” value [2] was 4.17 mg/kg, p.o, the inhibition at 1 µM [3] was 80% and the “ED50 (dose at which epileptic spike frequency is suppressed to 50%)” value [4] was 1.48 mg/kg, p.o. For the same molecule, the “TD50 (dosage at which 50% of animals fall off)” value (male Slc:ddy mice) was 8.83 mg/kg, p.o.

`Cc1ccccc1-n1c(Nc2cccnc2)nc2ccc(C#N)cc2c1=O` [Example 109, 4-oxo-2-(pyridin-3-ylamino)-3-(o-tolyl)-3,4-dihydroquinazoline-6-carbonitrile] was tested, and the “ED50 (clonic seizure)” value [2] was 0.25 mg/kg, p.o, the inhibition at 0.1 µM [3] was 59% and the “ED50 (dose at which epileptic spike frequency is suppressed to 50%)” value [4] was 0.19 mg/kg, p.o. For the same molecule, the “TD50 (dosage at which 50% of animals fall off)” value (male Slc:ddy mice) was 2.0 mg/kg, p.o.

For `O=c1c2cc(F)ccc2nc(Nc2cccnc2)n1-c1ccccc1` [Example 12, 6-fluoro-3-phenyl-2-(pyridin-3-ylamino)quinazolin-4(3H)-one], the “ED50 (tonic extensor seizure)” value [1] was 0.56 mg/kg, p.o, the “ED50 (clonic seizure)” value [2] was 0.25 mg/kg, p.o and the IC50 [3] was 200 nM. The “ED50 (dose at which epileptic spike frequency is suppressed to 50%)” value [4] was 0.18 mg/kg, p.o and the “TD50 (dosage at which 50% of animals fall off)” value (male Slc:ddy mice) was 1.8 mg/kg, p.o.

In the case of `O=c1c2ccccc2nc(Nc2cccnc2)n1-c1ccccc1` [Example 14, 3-phenyl-2-(pyridin-3-ylamino)quinazolin-4(3H)-one], the “ED50 (clonic seizure)” value [2] is reported as 4.17 mg/kg, p.o, the IC50 [3] is reported as 1800 nM and the “ED50 (dose at which epileptic spike frequency is suppressed to 50%)” value [4] is reported as 5.83 mg/kg, p.o. The “TD50 (dosage at which 50% of animals fall off)” value (male Slc:ddy mice) was 7.38 mg/kg, p.o.

In the case of `N#Cc1ccc2nc(Nc3cccnc3)n(-c3ccccc3)c(=O)c2c1` [Example 3, 4-oxo-3-phenyl-2-(pyridin-3-ylamino)-3,4-dihydroquinazoline-6-carbonitrile], the “ED50 (clonic seizure)” value [2] is reported as 0.74 mg/kg, p.o, the inhibition at 1 µM [3] is reported as 97% and the “ED50 (dose at which epileptic spike frequency is suppressed to 50%)” value [4] is reported as 0.66 mg/kg, p.o. For the same molecule, the “TD50 (dosage at which 50% of animals fall off)” value (male Slc:ddy mice) was 2.0 mg/kg, p.o.

With `CN1CCC(n2c(Nc3cccnc3)nc3ccccc3c2=O)CC1` [Example 78] the inhibition at 10 µM [3] was 100%.

For `Cc1ccccc1-n1c(Nc2cncc(F)c2)nc2ccc(C#N)cc2c1=O` [Example 114, 2-((5-fluoropyridin-3-yl)amino)-4-oxo-3-(o-tolyl)-3,4-dihydroquinazoline-6-carbonitrile], the “ED50 (clonic seizure)” value [2] was 0.065 mg/kg, p.o, the inhibition at 0.1 µM [3] was 55% and the “ED50 (dose at which epileptic spike frequency is suppressed to 50%)” value [4] was 0.044 mg/kg, p.o. For the same molecule, the “TD50 (dosage at which 50% of animals fall off)” value (male Slc:ddy mice) was 0.2 mg/kg, p.o.

Molecule `O=c1c2cc(F)ccc2nc(Nc2ncccc2F)n1-c1ccccc1` [Example 126] has an inhibition at 10 µM [3] of 80%.

`COc1cccc(-n2c(Nc3cccnc3)nc3ccc(F)cc3c2=O)c1` [Example 133] was tested, and the inhibition at 1 µM [3] was 51%.

For `O=c1c2cc(F)ccc2nc(Nc2ccncn2)n1-c1ccccc1` [Example 20], the IC50 [3] was 4900 nM.

— patent US12404268B2, “2-heteroaryl aminoquinazolinone derivative” (Sumitomo Pharma Co., Ltd., priority 2020, dated 2025)
